Source: paper PMC9154192 (PLoS Biology, 2022)
Values after ≈ are worked out from the molar mass of the structure shown. Values joined by “and” are separate entries in the source; they are usually repeats but may differ in a detail not shown here. Equal entries are not always repeated. Where two headings read alike, the source gives them in different places.

Key:
M. kyorinense = assay: microbe, parasite or virus in culture; assay type: cell-based; settings: Mycobacterium kyorinense
M. arupense = assay: microbe, parasite or virus in culture; assay type: cell-based, Mycobacterium arupense; settings: Mycolicibacter arupensis
intestinal microbiome = assay: Gut microbiome, 16s rRNA gene-based metagenomics analysis of feces; assay type: in vivo, BALB/c mice; settings: 30 mg/kg oral once a day for 7 days, BALB/c mice, feces
How it was run: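 Female BALB/c mice, six weeks old (n=6/group), received drug orally at 30 mg/kg once daily for 7 days in corn oil; vehicle controls received corn oil alone. Fecal DNA V4 16S rRNA gene amplicons were sequenced 300-bp paired-end and analyzed on EzBioCloud.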

M. tuberculosis H37Rv [1] = assay: microbe, parasite or virus in culture; assay type: cell-based, Mycobacterium tuberculosis
M. peregrinum = assay: microbe, parasite or virus in culture; assay type: cell-based, Mycobacterium peregrinum; settings: Mycolicibacterium peregrinum
M. marinum = assay: microbe, parasite or virus in culture; assay type: cell-based; settings: Mycobacterium marinum
XDR M. tuberculosis [2] = assay: Luminescence-based microbial cell viability assay; parameters: species or system Mycobacterium tuberculosis
M. kansasii = assay: microbe, parasite or virus in culture; assay type: cell-based; settings: Mycobacterium kansasii
M. bolletii = assay: microbe, parasite or virus in culture; assay type: cell-based, Mycobacterium bolletii; settings: Mycobacteroides abscessus
M. tuberculosis H37Rv [3] = assay type: cell-based, Mycobacterium tuberculosis; settings: for CFU/ml (average) / CFU/ml, single values / Intracellular M. tuberculosis, % (Drug Free = 100.0): Fig 3B, H37Rv
XDR M. tuberculosis [4] = assay type: cell-based, Mycobacterium tuberculosis
M. heraklionease = assay: microbe, parasite or virus in culture; assay type: cell-based; settings: Mycobacterium
M. smegmatis = assay: microbe, parasite or virus in culture; assay type: cell-based, Mycobacterium smegmatis; settings: Mycolicibacterium smegmatis
M. bovis = assay: microbe, parasite or virus in culture; assay type: cell-based; settings: Mycobacterium tuberculosis variant bovis
M. abscessus = assay: microbe, parasite or virus in culture; assay type: cell-based, Mycobacterium abscessus; settings: Mycobacteroides abscessus
in vitro [5] = assay type: cell-based; settings: human
How it was run: (§1)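 Cells are tested for cytotoxicity using the MTT assay and, in parallel, the WST-1 cell viability assay as previously reported.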

M. xenopi = assay: microbe, parasite or virus in culture; assay type: cell-based; settings: Mycobacterium xenopi
M. gordonae = assay: microbe, parasite or virus in culture; assay type: cell-based; settings: Mycobacterium gordonae
M. tuberculosis H37Rv [6] = assay: Luminescence-based microbial cell viability assay; parameters: species or system Mycobacterium tuberculosis; settings: for RLU/50ul (replicates1-3), single values / RLU/ml (×100) / RLU/50ul (average): Fig 2C
M. szulgai = assay: microbe, parasite or virus in culture; assay type: cell-based; settings: Mycobacterium szulgai
[7] = system: XDR M. tuberculosis (KMRC 00203–00197); assay type: cell-based, Mycobacterium tuberculosis; settings: for log reduction (CFU): 7 days
M. tuberculosis H37Ra = assay: microbe, parasite or virus in culture; assay type: cell-based, Mycobacterium tuberculosis; settings: Mycobacterium tuberculosis, H37RA
M. aubagnense = assay: microbe, parasite or virus in culture; assay type: cell-based, Mycobacterium aubagnense; settings: Mycolicibacterium aubagnense
in vitro [8] = assay type: cell-based, murine; settings: mouse
How it was run: as §1

M. marseiliense = assay: microbe, parasite or virus in culture; assay type: cell-based; settings: Mycobacterium

## CCCCOc1ccc2cc(CN3C(=O)CC[C@H]3C(=O)OC)c3cc(OC)c(OC)cc3c2c1 [PP2S, Methyl (S)-1-((3-butoxy-6,7-dimethoxyphenanthren-9-yl)methyl)-5-oxopyrrolidine-2-carboxylate]
M. kyorinense
  MIC: > 100 µg/mL
M. arupense
  MIC: > 100 µg/mL
Intestinal microbiome
  beta set-significance analysis, pair-wise comparison of gut microbiome: not significant
  difference in phylum or class level taxa compared to drug-free group: did not significantly differ
  phylogenetic diversity compared to drug-free control group: no significant change
M. tuberculosis H37Rv [1]
  MIC: 0.4 µg/mL (≈ 0.859 µM)
  in vitro antitubercular activities (S-form vs R-form): had in vitro antitubercular activities
M. tuberculosis H37Rv [1]; Mycobacterium tuberculosis, H37RV, read-out: MIC
  MIC: 0.8 µg/mL (≈ 1.72 µM)
M. peregrinum
  MIC: > 100 µg/mL
M. marinum
  MIC: > 100 µg/mL
XDR M. tuberculosis [2]
  RLU/50ul (replicates1-3), single values: 50 RLU/50ul and 140 RLU/50ul and 80 RLU/50ul and 90 RLU/50ul (2×) and 120 RLU/50ul and 70 RLU/50ul and 130 RLU/50ul and 40 RLU/50ul and 260 RLU/50ul and 290 RLU/50ul and 430 RLU/50ul and 420 RLU/50ul and 460 RLU/50ul and 330 RLU/50ul and 390 RLU/50ul and 410 RLU/50ul and 220 RLU/50ul and 640 RLU/50ul and 720 RLU/50ul and 540 RLU/50ul and 550 RLU/50ul and 580 RLU/50ul and 450 RLU/50ul (2×) and 590 RLU/50ul and 630 RLU/50ul
  concentration with significant antitubercular effect: 0.39 µg/mL
M. kansasii
  MIC: > 100 µg/mL
M. bolletii
  MIC: > 100 µg/mL
M. tuberculosis H37Rv [3]; drug conc. 1.6
  CFU/ml (average): 26807 CFU/ml
  CFU/ml, single values: 23800 CFU/ml and 25500 CFU/ml and 31120 CFU/ml
  Intracellular M. tuberculosis, % (Drug Free = 100.0): 79.7%
M. tuberculosis H37Rv [3]; drug conc. 3.1
  CFU/ml (average): 22130 CFU/ml
  CFU/ml, single values: 17950 CFU/ml and 21400 CFU/ml and 27040 CFU/ml
  Intracellular M. tuberculosis, % (Drug Free = 100.0): 65.8%
M. tuberculosis H37Rv [3]; drug conc. 6.3
  CFU/ml (average): 12950 CFU/ml
  Intracellular M. tuberculosis, % (Drug Free = 100.0): 38.5%
M. tuberculosis H37Rv [3]; drug conc. 12.5
  CFU/ml (average): 7367 CFU/ml
  Intracellular M. tuberculosis, % (Drug Free = 100.0): 21.9%
M. tuberculosis H37Rv [3]; drug conc. 25
  CFU/ml (average): 640 CFU/ml
  Intracellular M. tuberculosis, % (Drug Free = 100.0): 1.9%
M. tuberculosis H37Rv [3]; H37Rv in Raw 264.7 cells, 3 days, concentration-dependent
  growth of M. tuberculosis in macrophages (CFU): significantly inhibited the growth
XDR M. tuberculosis [4]
  RFU/200 μl (replicates1-3), single values: 9970 RFU/200 μl and 10020 RFU/200 μl and 9360 RFU/200 μl and 9560 RFU/200 μl and 10400 RFU/200 μl and 10740 RFU/200 μl and 10810 RFU/200 μl and 10890 RFU/200 μl and 9990 RFU/200 μl and 20170 RFU/200 μl and 19980 RFU/200 μl and 20200 RFU/200 μl and 19820 RFU/200 μl and 20260 RFU/200 μl and 22530 RFU/200 μl and 22620 RFU/200 μl and 22580 RFU/200 μl and 20070 RFU/200 μl and 37150 RFU/200 μl and 37370 RFU/200 μl and 42810 RFU/200 μl and 39680 RFU/200 μl and 39960 RFU/200 μl and 41160 RFU/200 μl and 41210 RFU/200 μl and 41220 RFU/200 μl and 37280 RFU/200 μl
  concentration with significant antitubercular effect: 0.39 µg/mL
M. heraklionease
  MIC: > 100 µg/mL
M. smegmatis
  MIC: > 100 µg/mL
M. bovis
  MIC: 0.8 µg/mL (≈ 1.72 µM)
M. abscessus
  MIC: > 100 µg/mL
In vitro [5]; A549
  CC50: > 500 µg/mL
In vitro [5]; HEK-293
  CC50: > 500 µg/mL
In vitro [5]; SH-SY5Y
  CC50: > 500 µg/mL
In vitro [5]; THP-1
  CC50: > 500 µg/mL
M. xenopi
  MIC: > 100 µg/mL
M. gordonae
  MIC: > 100 µg/mL
M. tuberculosis H37Rv [6]; drug conc. 0.39
  RLU/50ul (replicates1-3), single values: 1160 RLU/50ul and 1020 RLU/50ul and 2640 RLU/50ul and 2720 RLU/50ul and 2990 RLU/50ul and 1770 RLU/50ul and 1810 RLU/50ul and 1690 RLU/50ul and 1170 RLU/50ul
  RLU/ml (×100): 377.1 RLU/ml (×100)
M. tuberculosis H37Rv [6]; drug conc. 0.39, average of each replicate set
  RLU/50ul (average): 2783 RLU/50ul and 1757 RLU/50ul and 1117 RLU/50ul
M. tuberculosis H37Rv [6]; drug conc. 0.78
  RLU/50ul (replicates1-3), single values: 410 RLU/50ul and 270 RLU/50ul and 850 RLU/50ul (2×) and 870 RLU/50ul and 620 RLU/50ul and 650 RLU/50ul and 580 RLU/50ul and 390 RLU/50ul
  RLU/ml (×100): 122.0 RLU/ml (×100)
M. tuberculosis H37Rv [6]; drug conc. 0.78, average of each replicate set
  RLU/50ul (average): 857 RLU/50ul and 617 RLU/50ul and 357 RLU/50ul
M. tuberculosis H37Rv [6]; drug conc. 1.56
  RLU/50ul (replicates1-3), single values: 120 RLU/50ul and 160 RLU/50ul and 360 RLU/50ul and 370 RLU/50ul and 420 RLU/50ul and 110 RLU/50ul and 130 RLU/50ul (2×) and 170 RLU/50ul
  RLU/ml (×100): 43.8 RLU/ml (×100)
M. tuberculosis H37Rv [6]; drug conc. 1.56, average of each replicate set
  RLU/50ul (average): 383 RLU/50ul and 137 RLU/50ul (2×)
M. tuberculosis H37Rv [6]; luminescence-based assay
  concentration with significant antitubercular effect: 1.56 µg/mL and 0.78 µg/mL
M. szulgai
  MIC: > 100 µg/mL
[7]
  CFU (log): 3.65 and 3.73
  CFU (replicates1-3), single values: 5500 CFU and 1100 CFU and 2900 CFU and 2700 CFU and 6500 CFU and 5100 CFU and 5400 CFU and 6100 CFU and 5320 CFU and 9100 CFU and 3200 CFU (2×) and 3600 CFU and 3300 CFU and 3400 CFU and 2100 CFU and 12800 CFU and 8170 CFU
[7]; at 0.8 μg/ml
  log reduction (CFU): 1.8
[7]; at 1.6 μg/ml
  log reduction (CFU): 1.9
M. tuberculosis H37Ra
  MIC: 0.4 µg/mL (≈ 0.859 µM)
M. aubagnense
  MIC: > 100 µg/mL
In vitro [8]; L929
  CC50: > 500 µg/mL
In vitro [8]; Raw264.7
  CC50: > 500 µg/mL
M. marseiliense
  MIC: > 100 µg/mL
